What all share (experiment): ≥ marks a high value that may be exact or a test limit, other limits are often not marked, values filed in µg/mL are converted to µM
In assay [1] the test system is Escherichia coli ATCC 25922.
The test system of a further assay is Escherichia coli.
For a further assay, the system named is Staphylococcus aureus.
The subject of assay [2] is Staphylococcus aureus ATCC 25923.
Assay [3] has as its system Pseudomonas aeruginosa ATCC 27853.

The text below walks through data of DBAASP.

Each structure is given as a SMILES string. ≈ marks a conversion by molar mass, not a printed value. Where “and” joins values, the source holds several entries; their conditions need not be identical. Identical values can stand only once. Bounds are passed on as bounds.

Consider `CC(C)C[C@H](NC(=O)[C@H](CCC(N)=O)NC(=O)[C@H](CCCN=C(N)N)NC(=O)[C@H](CCCN=C(N)N)NC(=O)[C@@H]1CCCN1C(=O)[C@H](C)N)C(=O)N[C@@H](CCCCN)C(=O)N[C@@H](Cc1c[nH]c2ccccc12)C(=O)O` [APRRQLKW], for which the MIC (commonly the smallest concentration in the dilution series that meets the test's criterion for growth inhibition) in assay [1] came to 15.2 µM (≈ 16 µg/mL).
For the compound `CSCC[C@@H]1NC(=O)[C@H](CC(C)C)NC(=O)[C@H](CCCN=C(N)N)NC(=O)[C@H](CO)NC(=O)[C@@H]2CSSC[C@@H]3NC(=O)[C@H](CO)NC(=O)CNC(=O)[C@H]([C@@H](C)O)NC(=O)[C@H](CSSC[C@H](N)C(=O)N[C@@H](CCCCN)C(=O)NCC(=O)N[C@@H](CCCCN)C(=O)NCC(=O)N[C@@H](C)C(=O)N[C@@H](CCCCN)C(=O)N2)NC(=O)[C@H](CSSC[C@@H](C(=O)NCC(=O)N[C@@H](CO)C(=O)O)NC(=O)[C@H](CCCCN)NC(=O)CNC(=O)[C@H](CO)NC(=O)[C@H](CCCN=C(N)N)NC3=O)NC(=O)[C@H](CC(=O)O)NC(=O)[C@H](Cc2ccc(O)cc2)NC1=O` [CKGKGAKCSRLMYDCCTGSCRSGKCGS], the MIC against Escherichia coli and with Staphylococcus aureus was above 500 µM each time.
As to `CC(C)[C@H](NC(=O)[C@H](CCCCN)NC(=O)[C@@H](N)Cc1ccccc1)C(=O)N[C@H](C(=O)N[C@@H](Cc1c[nH]c2ccccc12)C(=O)N[C@@H](CCCCN)C(=O)N[C@H](C(=O)N[C@@H](CCCCN)C(=O)N[C@@H](Cc1c[nH]c2ccccc12)C(=O)N[C@@H](Cc1c[nH]c2ccccc12)C(=O)N[C@@H](CCCCN)C(=O)NCC(N)=O)[C@@H](C)O)[C@@H](C)O` [FKVTWKTKWWKG], the MIC in assay [1] turned out to be 4.38 µM (≈ 6.99 µg/mL); in assay [2], 7.59 µM (≈ 12.1 µg/mL).
For the compound `CC[C@H](C)[C@H](NC(=O)[C@H](CCCCN)NC(=O)[C@H](CC(C)C)NC(=O)[C@H](C)NC(=O)[C@H](C)NC(=O)[C@H](CCCCN)NC(=O)[C@H](CC(C)C)NC(=O)[C@H](C)NC(=O)[C@H](CCCCN)NC(=O)CNC(=O)[C@H](CC(C)C)NC(=O)[C@H](Cc1ccccc1)NC(=O)[C@H](CO)NC(=O)CNC(=O)[C@H](Cc1ccccc1)NC(=O)CN)C(=O)NCC(=O)N[C@@H](C)C(=O)N[C@@H](CC(=O)O)C(=O)N[C@H](C(=O)N[C@@H](CC(C)C)C(=O)NCC(=O)NCC(=O)N[C@@H](C)C(=O)N1CCC[C@H]1C(=O)N[C@@H](CCC(N)=O)C(=O)N[C@@H](CCC(N)=O)C(=O)O)C(C)C` [GFGSFLGKALKAALKIGADVLGGAPQQ], the MIC against Escherichia coli is above 50 µM; with Staphylococcus aureus, 25 µM (≈ 65.4 µg/mL).
As to `CC(C)C[C@H](NC(=O)[C@H](C)NC(=O)[C@H](CCCCN)NC(=O)[C@H](C)NC(=O)[C@H](C)NC(=O)CNC(=O)[C@H](CCCCN)NC(=O)[C@H](CC(C)C)NC(=O)[C@H](CC(C)C)NC(=O)[C@H](CC(=O)O)NC(=O)[C@H](CCCCN)NC(=O)[C@H](Cc1ccccc1)NC(=O)CN)C(=O)N[C@H](C(=O)N[C@@H](CCCCN)C(=O)N[C@H](C(=O)N[C@H](C(=O)N[C@@H](CC(C)C)C(=O)N[C@@H](CCCCN)C(N)=O)C(C)C)[C@@H](C)O)C(C)C` [GFKDLLKGAAKALVKTVLK], the results for the MIC in assay [1] and in assay [2] were 5 µM (≈ 10 µg/mL) and 18.8 µM (≈ 37.6 µg/mL), respectively.
`CC[C@H](C)[C@H](NC(=O)CN)C(=O)N[C@@H](CCSC)C(=O)N[C@@H](CC(=O)O)C(=O)N[C@@H](CO)C(=O)N[C@H](C(=O)N[C@@H](CCCCN)C(=O)N[C@@H](CC(N)=O)C(=O)N[C@@H](C)C(=O)N[C@@H](C)C(=O)N[C@@H](CCCCN)C(=O)N[C@@H](CC(N)=O)C(=O)N[C@@H](CC(C)C)C(=O)N[C@@H](C)C(=O)NCC(=O)N[C@@H](CCC(N)=O)C(=O)N[C@@H](CC(C)C)C(=O)N[C@@H](CC(C)C)C(=O)N[C@@H](CC(=O)O)C(=O)N[C@H](C(=O)N[C@H](C(=O)N[C@@H](CCCCN)C(=O)N[C@H]1CSSC[C@@H](C(=O)O)NC(=O)[C@H](C)NC(=O)[C@H]([C@@H](C)O)NC(=O)[C@H]([C@@H](C)CC)NC(=O)[C@H](CCCCN)NC1=O)[C@@H](C)CC)[C@@H](C)O)C(C)C` [GIMDSVKNAAKNLAGQLLDTIKCKITAC] yielded an MIC in assay [1] of 25 µM (≈ 73 µg/mL).
As to `CC[C@H](C)[C@H](NC(=O)[C@H](CCCN=C(N)N)NC(=O)[C@H](CCCCN)NC(=O)[C@H](C)NC(=O)[C@H](CC(C)C)NC(=O)CN)C(=O)N[C@@H](CCCCN)C(=O)N[C@H](C(=O)N[C@@H](CC(C)C)C(=O)N[C@@H](CC(C)C)C(N)=O)[C@@H](C)O` [GLAKRIKTLL], the MIC in assay [1] and in assay [2] was above 34.2 µM in each case.
For `CC[C@H](C)[C@H](NC(=O)[C@H](CC(C)C)NC(=O)[C@H](CCCCN)NC(=O)[C@H](CC(C)C)NC(=O)[C@H](CC(C)C)NC(=O)CN)C(=O)N[C@@H](CCCCN)C(=O)N[C@H](C(=O)N[C@@H](CC(C)C)C(=O)N[C@@H](CC(C)C)C(N)=O)[C@@H](C)O` [GLLKLIKTLL], the minimum inhibitory concentration (MIC) in assay [1] and in assay [2] was 1.8 µM (≈ 2 µg/mL) throughout.
For `CC[C@H](C)[C@H](NC(=O)[C@H](CCCCN)NC(=O)[C@@H](NC(=O)[C@H](CCCN=C(N)N)NC(=O)[C@H](CCCCN)NC(=O)[C@H](CC(C)C)NC(=O)[C@H](CC(C)C)NC(=O)CN)[C@@H](C)CC)C(=O)N[C@@H](CC(C)C)C(=O)N[C@@H](CC(C)C)C(N)=O` [GLLKRIKILL], the figures for the MIC in assay [1] and in assay [2] were 7.72 µM (≈ 8.99 µg/mL) and 12 µM (≈ 14 µg/mL), respectively.
With `CC[C@H](C)[C@H](NC(=O)[C@H](CCCN=C(N)N)NC(=O)[C@H](CCCCN)NC(=O)[C@H](CC(C)C)NC(=O)[C@H](CC(C)C)NC(=O)CN)C(=O)N[C@@H](CCCCN)C(=O)N[C@@H](CO)C(=O)N[C@@H](CC(C)C)C(=O)N[C@@H](CC(C)C)C(N)=O` [GLLKRIKSLL], in assay [1], the MIC came out at 100 µM (≈ 114 µg/mL).
On to `CC[C@H](C)[C@H](NC(=O)[C@H](CCCN=C(N)N)NC(=O)[C@H](CCCCN)NC(=O)[C@H](CC(C)C)NC(=O)[C@H](CC(C)C)NC(=O)CN)C(=O)N[C@@H](CCCCN)C(=O)N[C@H](C(=O)N[C@@H](CC(C)C)C(=O)N[C@@H](C)C(N)=O)[C@@H](C)O` [GLLKRIKTLA], for which the MIC in assay [1] and in assay [2] was above 43.1 µM in each case.
Regarding `CC[C@H](C)[C@H](NC(=O)[C@H](CCCN=C(N)N)NC(=O)[C@H](CCCCN)NC(=O)[C@H](CC(C)C)NC(=O)[C@H](CCSC)NC(=O)CN)C(=O)N[C@@H](CCCCN)C(=O)N[C@H](C(=O)N[C@@H](CC(C)C)C(=O)N[C@@H](CCSC)C(N)=O)[C@@H](C)O` [GMLKRIKTLM], the MIC in assay [1] is above 200 µM.
Compound `CC[C@H](C)[C@H](N)C(=O)NCC(=O)N[C@@H](CCCCN)C(=O)N[C@@H](CC(C)C)C(=O)N1CCC[C@H]1C(=O)N[C@@H](CCCCN)C(=O)N[C@@H](Cc1c[nH]c2ccccc12)C(=O)N[C@H](C(=O)N[C@H](C(=O)N[C@@H](CCCCN)C(=O)N[C@H](C(=O)N[C@H](C(=O)N[C@@H](CC(N)=O)C(=O)N[C@@H](CCCCN)C(=O)N[C@@H](Cc1ccccc1)C(=O)N[C@H](C(=O)N[C@@H](CCCCN)C(=O)N[C@@H](CCCCN)C(=O)O)[C@@H](C)O)C(C)C)[C@@H](C)O)[C@@H](C)CC)[C@@H](C)CC` [IGKLPKWIIKTVNKFTKK] yielded an MIC in the assay with Escherichia coli of 2.1 µM (≈ 4.5 µg/mL).
On to `CC(C)C[C@H](NC(=O)[C@H](C)NC(=O)[C@H](CCCCN)NC(=O)[C@H](CC(C)C)NC(=O)[C@H](C)NC(=O)[C@H](CCCCN)NC(=O)[C@H](CCCCN)NC(=O)[C@H](CC(C)C)NC(=O)[C@H](C)NC(=O)[C@H](CCCCN)NC(=O)[C@H](CC(C)C)NC(=O)[C@H](C)NC(=O)[C@H](CCCCN)NC(=O)[C@H](CCCCN)NC(=O)[C@H](CC(C)C)NC(=O)[C@H](C)NC(=O)[C@H](CCCCN)NC(=O)[C@H](CC(C)C)NC(=O)[C@H](C)NC(=O)[C@@H](N)CCCCN)C(=O)N[C@@H](CCCCN)C(N)=O` [KALKALKKALKALKKALKALK], for which the MIC was determined as 4 µM (≈ 9.1 µg/mL) in assay [1], 4 µM (≈ 9.1 µg/mL) in assay [3] and 8 µM (≈ 18.2 µg/mL) in assay [2].
For `CC[C@H](C)[C@H](NC(=O)[C@H](CCCCN)NC(=O)[C@H](CCCN=C(N)N)NC(=O)[C@H](CC(C)C)NC(=O)[C@H](CCCN=C(N)N)NC(=O)[C@H](CO)NC(=O)[C@H](Cc1c[nH]c2ccccc12)NC(=O)[C@@H](NC(=O)[C@@H](N)CCCCN)C(C)C)C(=O)N[C@@H](Cc1ccccc1)C(=O)N[C@@H](CO)C(=O)N[C@H](C(=O)N[C@@H](CCCN=C(N)N)C(N)=O)[C@@H](C)O` [KVWSRLRKIFSTR], the MIC in assay [1] was 2.64 µM and 5.27 µM.
Same read-out and setting: the value for `CC(C)C[C@H](NC(=O)[C@H](Cc1ccccc1)NC(=O)[C@@H]1CCCN1C(=O)[C@H](C)NC(=O)[C@H](Cc1c[nH]c2ccccc12)NC(=O)[C@H](C)NC(=O)[C@@H]1CCCN1C(=O)[C@H](Cc1ccccc1)NC(=O)[C@H](CCCN=C(N)N)NC(=O)[C@H](CCCN=C(N)N)NC(=O)[C@@H](N)C(C)C)C(=O)N[C@@H](CCCN=C(N)N)C(=O)N[C@@H](CCCN=C(N)N)C(N)=O` [VRRFPAWAPFLRR] was 90.5 µM (≈ 151 µg/mL).
Consider `CC(C)C[C@H](NC(=O)[C@H](Cc1ccccc1)NC(=O)[C@@H]1CCCN1C(=O)[C@H](C)NC(=O)[C@H](C)NC(=O)[C@H](Cc1c[nH]c2ccccc12)NC(=O)[C@@H]1CCCN1C(=O)[C@H](Cc1ccccc1)NC(=O)[C@H](CCCN=C(N)N)NC(=O)[C@H](CCCN=C(N)N)NC(=O)[C@@H](N)C(C)C)C(=O)N[C@@H](CCCN=C(N)N)C(=O)N[C@@H](CCCN=C(N)N)C(N)=O` [VRRFPWAAPFLRR], for which the MIC in assay [1] is 90.5 µM (≈ 151 µg/mL).
In the case of `CC(C)[C@H](NC(=O)[C@H](CC(=O)O)NC(=O)[C@H](CO)NC(=O)[C@H](CCCCN)NC(=O)[C@@H](N)Cc1c[nH]c2ccccc12)C(=O)N[C@@H](CCCN=C(N)N)C(=O)N[C@@H](CCCN=C(N)N)C(=O)N[C@@H](Cc1c[nH]c2ccccc12)C(=O)N[C@@H](CCCN=C(N)N)C(=O)N[C@@H](CO)C(=O)N[C@@H](CCCN=C(N)N)C(=O)N[C@@H](Cc1ccc(O)cc1)C(N)=O` [WKSDVRRWRSRY], the MIC is 64 µM (≈ 108 µg/mL) in assay [1], above 100 µM in assay [3] and above 100 µM in assay [2].
For the compound `CC(C)[C@H](NC(=O)[C@H](Cc1ccc(O)cc1)NC(=O)[C@H](CO)NC(=O)[C@H](CCCCN)NC(=O)[C@@H](N)Cc1c[nH]c2ccccc12)C(=O)N[C@@H](CCCN=C(N)N)C(=O)N[C@@H](CCCN=C(N)N)C(=O)N[C@@H](Cc1c[nH]c2ccccc12)C(=O)N[C@@H](CCCN=C(N)N)C(N)=O` [WKSYVRRWR], the MIC is 64 µM (≈ 85.5 µg/mL) in assay [1], above 100 µM in assay [3] and 64 µM (≈ 85.5 µg/mL) in assay [2].
